# Assay results as given in ChEMBL document CHEMBL3044830, “Synthesis, characterization, antibacterial, antifungal, and immunomodulating activities of gatifloxacin derivatives” (Med Chem Res, 2010).
# Assays:
# [1] = system: Shigella flexneri; test: Antibacterial activity against Shigella flexneri assessed as zone of inhibition at 5 to 40 ug/ml after 18 to 24 hr by disk diffusion method relative to gatifloxacin; assay type: functional
# [2] = system: Proteus mirabilis; test: Antibacterial activity against Proteus mirabilis assessed as concentration required to obtain a zone of inhibition of 20 mm after 18 to 24 hr by disc diffusion method; assay type: functional
# [3] = system: Staphylococcus aureus; test: Antibacterial activity against methicillin-resistant Staphylococcus aureus assessed as concentration required to obtain a zone of inhibition of 5 mm after 18 to 24 hr by disk diffusion method; assay type: functional
# [4] = system: Proteus mirabilis; test: Antibacterial activity against Proteus mirabilis assessed as concentration required to obtain a zone of inhibition of 5 mm after 18 to 24 hr by disc diffusion method; assay type: functional
# [5] = system: Escherichia coli; test: Antibacterial activity against Escherichia coli assessed as concentration required to obtain a zone of inhibition of 20 mm after 18 to 24 hr by disk diffusion method; assay type: functional
# [6] = system: Citrobacter; test: Antibacterial activity against Citrobacter assessed as concentration required to obtain a zone of inhibition of 20 mm after 18 to 24 hr by disk diffusion method; assay type: functional
# [7] = system: Escherichia coli; test: Antibacterial activity against Escherichia coli assessed as concentration required to obtain a zone of inhibition of 5 mm after 18 to 24 hr by disk diffusion method; assay type: functional
# [8] = system: Pseudomonas aeruginosa; test: Antibacterial activity against Pseudomonas aeruginosa assessed as zone of inhibition at 5 to 40 ug/ml after 18 to 24 hr by disk diffusion method relative to gatifloxacin; assay type: functional
# [9] = system: Klebsiella pneumoniae; test: Antibacterial activity against Klebsiella pneumoniae assessed as concentration required to obtain a zone of inhibition of 5 mm after 18 to 24 hr by disk diffusion method; assay type: functional
# [10] = system: Shigella sp.; test: Antibacterial activity against Shigella typhi assessed as concentration required to obtain a zone of inhibition of 10 mm after 18 to 24 hr by disc diffusion method; assay type: functional
# [11] = system: Shigella flexneri; test: Antibacterial activity against Shigella flexneri assessed as concentration required to obtain a zone of inhibition of 20 mm after 18 to 24 hr by disk diffusion method; assay type: functional
# [12] = system: Escherichia coli; test: Antibacterial activity against Escherichia coli assessed as zone of inhibition at 5 to 40 ug/ml after 18 to 24 hr by disk diffusion method relative to gatifloxacin; assay type: functional
# [13] = system: Shigella flexneri; test: Antibacterial activity against Shigella flexneri assessed as concentration required to obtain a zone of inhibition of 10 mm after 18 to 24 hr by disk diffusion method; assay type: functional
# [14] = system: Klebsiella pneumoniae; test: Antibacterial activity against Klebsiella pneumoniae assessed as concentration required to obtain a zone of inhibition of 20 mm after 18 to 24 hr by disk diffusion method; assay type: functional
# [15] = system: Pseudomonas aeruginosa; test: Antibacterial activity against Pseudomonas aeruginosa assessed as concentration required to obtain a zone of inhibition of 5 mm after 18 to 24 hr by disk diffusion method; assay type: functional
# [16] = system: Escherichia coli; test: Antibacterial activity against Escherichia coli assessed as concentration required to obtain a zone of inhibition of 10 mm after 18 to 24 hr by disk diffusion method; assay type: functional
# [17] = system: Shigella sp.; test: Antibacterial activity against Shigella typhi assessed as zone of inhibition after 18 to 24 hr by disc diffusion method relative to gatifloxacin; assay type: functional
# [18] = system: Citrobacter; test: Antibacterial activity against Citrobacter assessed as concentration required to obtain a zone of inhibition of 5 mm after 18 to 24 hr by disk diffusion method; assay type: functional
# [19] = Antibacterial activity against Hofmanni bacterium assessed as concentration required to obtain a zone of inhibition of 20 mm after 18 to 24 hr by disc diffusion method
# [20] = system: Citrobacter; test: Antibacterial activity against Citrobacter assessed as zone of inhibition at 5 to 40 ug/ml after 18 to 24 hr by disk diffusion method relative to gatifloxacin; assay type: functional
# [21] = system: Klebsiella pneumoniae; test: Antibacterial activity against Klebsiella pneumoniae assessed as zone of inhibition at 5 to 40 ug/ml after 18 to 24 hr by disk diffusion method relative to gatifloxacin; assay type: functional
# [22] = system: Pseudomonas aeruginosa; test: Antibacterial activity against Pseudomonas aeruginosa assessed as concentration required to obtain a zone of inhibition of 10 mm after 18 to 24 hr by disk diffusion method; assay type: functional
# [23] = system: Shigella flexneri; test: Antibacterial activity against Shigella flexneri assessed as concentration required to obtain a zone of inhibition of 5 mm after 18 to 24 hr by disk diffusion method; assay type: functional
# [24] = system: Shigella sp.; test: Antibacterial activity against Shigella typhi assessed as concentration required to obtain a zone of inhibition of 5 mm after 18 to 24 hr by disc diffusion method; assay type: functional
# [25] = Antibacterial activity against Hofmanni bacterium assessed as zone of inhibition after 18 to 24 hr by disc diffusion method relative to gatifloxacin
# [26] = system: Pseudomonas aeruginosa; test: Antibacterial activity against Pseudomonas aeruginosa assessed as concentration required to obtain a zone of inhibition of 20 mm after 18 to 24 hr by disk diffusion method; assay type: functional
# [27] = system: Bacillus subtilis; test: Antibacterial activity against Bacillus subtilis assessed as concentration required to obtain a zone of inhibition of 5 mm after 18 to 24 hr by disk diffusion method; assay type: functional
# [28] = system: Bacillus subtilis; test: Antibacterial activity against Bacillus subtilis assessed as concentration required to obtain a zone of inhibition of 10 mm after 18 to 24 hr by disk diffusion method; assay type: functional
# [29] = system: Citrobacter; test: Antibacterial activity against Citrobacter assessed as concentration required to obtain a zone of inhibition of 10 mm after 18 to 24 hr by disk diffusion method; assay type: functional
# [30] = Antibacterial activity against Hofmanni bacterium assessed as concentration required to obtain a zone of inhibition of 5 mm after 18 to 24 hr by disc diffusion method
# [31] = system: Staphylococcus aureus; test: Antibacterial activity against methicillin-resistant Staphylococcus aureus assessed as concentration required to obtain a zone of inhibition of 20 mm after 18 to 24 hr by disk diffusion method; assay type: functional
# [32] = Antibacterial activity against Hofmanni bacterium assessed as concentration required to obtain a zone of inhibition of 10 mm after 18 to 24 hr by disc diffusion method
# [33] = system: Proteus mirabilis; test: Antibacterial activity against Proteus mirabilis assessed as concentration required to obtain a zone of inhibition of 10 mm after 18 to 24 hr by disc diffusion method; assay type: functional
# [34] = system: Bacillus subtilis; test: Antibacterial activity against Bacillus subtilis assessed as zone of inhibition at 5 to 40 ug/ml after 18 to 24 hr by disk diffusion method relative to gatifloxacin; assay type: functional
# [35] = system: Proteus mirabilis; test: Antibacterial activity against Proteus mirabilis assessed as zone of inhibition at 5 to 40 ug/ml after 18 to 24 hr by disc diffusion method relative to gatifloxacin; assay type: functional
# [36] = system: Bacillus subtilis; test: Antibacterial activity against Bacillus subtilis assessed as concentration required to obtain a zone of inhibition of 20 mm after 18 to 24 hr by disk diffusion method; assay type: functional
# [37] = system: Klebsiella pneumoniae; test: Antibacterial activity against Klebsiella pneumoniae assessed as concentration required to obtain a zone of inhibition of 10 mm after 18 to 24 hr by disk diffusion method; assay type: functional
# [38] = system: Staphylococcus aureus; test: Antibacterial activity against methicillin-resistant Staphylococcus aureus assessed as zone of inhibition at 5 to 40 ug/ml after 18 to 24 hr by disk diffusion method relative to gatifloxacin; assay type: functional
smiles,measurement,setting,value
CO/N=C1\CN(c2nc3c(cc2F)c(=O)c(C(=O)O)cn3C2CC2)CC1CN.CS(=O)(=O)O (stereo not drawn) [GEMIFLOXACIN MESYLATE],inhibition zone (IZ),[1],61.4%
same,Activity,[2],12 µg/mL
same,Activity,[3],9 µg/mL
same,Activity,[4],10 µg/mL
same,Activity,[5],10 µg/mL
same,Activity,[6],11 µg/mL
same,Activity,[7],7 µg/mL
same,inhibition zone (IZ),[8],75%
same,Activity,[9],10 µg/mL
same,Activity,[10],9 µg/mL
same,Activity,[11],13 µg/mL
same,inhibition zone (IZ),[12],75.72%
same,Activity,[13],8 µg/mL
same,Activity,[14],12 µg/mL
same,Activity,[15],8 µg/mL
same,Activity,[16],9 µg/mL
same,inhibition zone (IZ),[17],75.5%
same,Activity,[18],7 µg/mL
same,Activity,[19],8 µg/mL
same,inhibition zone (IZ),[20],42.83%
same,inhibition zone (IZ),[21],84.2%
same,Activity,[22],9 µg/mL
same,Activity,[23],7 µg/mL
same,Activity,[24],8 µg/mL
same,inhibition zone (IZ),[25],56.6%
same,Activity,[26],10 µg/mL
same,Activity,[27],5 µg/mL
same,Activity,[28],7 µg/mL
same,Activity,[29],9 µg/mL
same,Activity,[30],5 µg/mL
same,Activity,[31],14 µg/mL
same,Activity,[32],7 µg/mL
same,Activity,[33],11 µg/mL
same,inhibition zone (IZ),[34],46.3%
same,inhibition zone (IZ),[35],82.5%
same,Activity,[36],8 µg/mL
same,Activity,[37],11 µg/mL
same,inhibition zone (IZ),[38],69.8%
